Article PMC6856162 (2019)

Key:
[1] = system: 5′r(CCGCAGCGG)3′ (RNA, mismatch bulge abasic) CCGCAGCGG; assay: 1D and 2D NMR titration; conditions: 298 K; D/N 0.0 to 2.0
[2] = system: (5′CAG/3′GAC)x6; AAx6; AA × 6 (RNA, repeat) GGGAGAGGGUUUAAUCAGCAGCAGCAGCAGCAGUACGAAAGUACAGCAGCAGCAGCAGCAGAUUGGAUCCGCAAGG; assay: UV melting; conditions: Na+ 10 mM Na2HPO4 + 0.1 M NaCl (melting buffer not given; assumed same as CD/ITC buffer, which also has 50 mM EDTA); derived from two Tm (51.8, 57.9); D/N 2.0; per base
[3] = system: (5′CAG/3′GAC)x6; AAx6; AA × 6 (RNA, repeat) GGGAGAGGGUUUAAUCAGCAGCAGCAGCAGCAGUACGAAAGUACAGCAGCAGCAGCAGCAGAUUGGAUCCGCAAGG; assay: fluorescence titration; conditions: room temperature; two-site fit
[4] = system: (5′CAG/3′GAC)x6; AAx6; AA × 6 (RNA, repeat) GGGAGAGGGUUUAAUCAGCAGCAGCAGCAGCAGUACGAAAGUACAGCAGCAGCAGCAGCAGAUUGGAUCCGCAAGG; assay: ITC; conditions: 0.1 M NaCl; 10 mM Na2HPO4, EDTA, pH 7.2; two-site fit; nanomolar range stated

binding [1]: yes
dTm [2]: 6.1 °C
binding [3]: yes
binding [4]: yes
SMILES: Cc1cc2ccccc2nc1-c1ccccc1F
